Results reported in patent US20240301409A1, “Chemically Modified Small Activating RNA” (RACTIGEN THERAPEUTICS, priority 2021, published 2024).
Oligonucleotides are written 5' to 3', each unit as a sugar letter and its base; * is a phosphorothioate linkage, no mark a phosphodiester; rarer units and linkages stand in square brackets, end groups in braces. Plain capitals give the bases only. m = 2'-O-methyl; r = 2'-OH (RNA); f = 2'-fluoro

Tests used:
p21 gene [1] = assay: p21 mRNA expression by RT-qPCR in Ku-7-LG cells; assay type: cell-based, human; settings: 10 nM
Description: (§1) Ku-7-LG and T24 cells were transfected with the indicated saRNA at a final concentration of 10 nM for 3 days. After transfection, the RNA was extracted with the Qiagen RNeasy kit. After reverse transcription, the ABI 7500 fast real-time PCR system was used for qPCR amplification. The GAPDH gene was amplified as an internal reference. […] Dashed line indicates duplex Rag1-40 with no chemical modification in comparison, and the values above the line indicate stronger activity. The control was blank transfection without oligonucleotide. dsCon2 is transfected with a double-stranded scramble RNA. The value of the ordinate represents the mean±SD of 2 repeated treatments.
(§2) The control and dsCon2 were blank transfection and scramble dsRNA transfection, respectively. The values in the ordinate represent the mean±SD of 2 repeated treatments.
(§3) Human bladder cancer cells Ku-7-LG (ATCC), J82 (ATCC) and T24 (ATCC) were cultured in McCoy medium (Gibco) comprising 10% calf serum (Sigma-Aldrich) and 1% penicillin/Streptomycin (Gibco). Cells were cultured at 37° C. under 5% CO2. Ku-7-LG, J82 and T24 cells were plated into 12-well plates at 10×10^4 cells per well, transfected with the small RNA at a concentration of 10 nM (unless otherwise specified) for three days, using RNAiMax (Invitrogen, Carlsbad, CA) according to the manufacturer's instructions. Two replicate wells were set for each treatment.
(§4) After transfection, the medium was discarded and to each well 500 μl cell lysate was added and incubated at room temperature for 5 minutes. RNA was extracted with the Qiagen RNeasy kit, and after reverse transcription, qPCR analysis was performed on the ABI 7500 Fast Real-time PCR system (Applied Biosystems). Each sample was amplified in 3 replicate wells.
(§5) The PCR reaction conditions are: 95° C. for 30 seconds, 95° C. for 5 seconds, 60° C. for 30 seconds, and 40 cycles of amplification. The GAPDH gene was amplified as an internal reference at the same time. p21 was amplified with the p21F1/R1 primer pair, and the specific sequences of the amplification primers are shown in Table 1.
(§6) In order to calculate the expression value (Erel) of p21 (target gene) of a saRNA transfection sample relative to the control treatment, Formula 1 is used to input the Ct values of the target gene and the internal reference gene for calculation.
(§7) wherein, CtTm is the Ct value of the target gene from the control treatment sample; CtTs is the Ct value of the target gene from the saRNA treated sample; CtRm is the Ct value of the internal reference gene from the control treatment sample; and CtRs is the Ct value of the internal reference gene from the saRNA treated sample.
(§8) The main purpose of introducing chemical modifications to regulatory oligonucleotides of a gene is to improve their pharmaceutical properties, including enhancing in vivo stability and mitigating off-target effects (e.g., sequence-dependent targeting of unrelated genes, sequence-dependent or independent immune stimulation), while maintaining their gene regulatory capacity (gene knockdown or activation). To assess the effect of chemical modification on the RNAa activity of saRNA on the p21 gene, 10 nM unmodified (Rag1-40) and modified (Rag1-40-1 to Rag1-40-34) duplexes were transfected into Ku-7-LG and T24 cells, respectively. After 72 hours, the mRNA expression level of p21 was assessed by RT-qPCR. All duplexes induced p21 mRNA expression in all […] at least double that of the control.
(§9) In order to further evaluate the expression level of p21 mRNA after the different durations of treatment by the chemically modified saRNA duplexes, two saRNAs (RAG1-40-31 and RAG1-40-53) were randomly selected from the above chemically modified saRNA duplexes for detection. RAG1-40-31 and RAG1-40-53 were transfected into Ku-7-LG and T24 cells at a final concentration of 10 nM, for 1, 2, 3, 4, 7 and 9 days, respectively. Each treatment was set up in duplicate. […]

p21 gene [2] = assay: p21 mRNA expression by RT-qPCR in T24 cells; assay type: cell-based, human; settings: 10 nM
Description: as §1, §2, §3, §4, §5, §6, §7, §8, §9

Ku-7-LG cells = assay: Cell cycle detection by flow cytometry in Ku-7-LG cells; assay type: cell-based, human; settings: 48 hours
Description: RAG1-40-31 and RAG1-40-53 were transfected into Ku-7-LG cells at the final concentrations of 0.1, 1, 10 and 50 nM, and the transfection duration was 48 hours. Two replicate wells were used for each treatment. After transfection, the cell cycle was analyzed by flow cytometry, and the collected data were analyzed by MotFit software.
After transfection, the supernatant was discarded to collect cells. To each well 500 μL PBS was added for one wash and then discarded. To each well 100 μL trypsin was further added. 900 μL medium was added to stop digestion before transferring to a 1.5 mL centrifuge tube. All the cells were collected through centrifugation (400 rcf, 5 min) and counted (2×10^5 cells/200 μL PBS). Cold 70% absolute ethanol was added before incubation overnight at 4° C. After washing twice with PBS, 200 μL Krishan buffer was added before incubation at 4° C. for 1 hour. After washing twice with PBS, the supernatant was discarded and 200 μL PBS was added for cell re-suspension, then the cells were transferred to a 96-well plate and analyzed by flow cytometer. The collected data were analyzed with MotFit software.
In order to study the mechanism of cellular proliferation suppression, change in cell cycle was analyzed using flow cytometry in this example. Randomly selected saRNAs RAG1-40-31 and RAG1-40-53 were transfected into Ku-7-LG cells at final concentrations of 0.1, 1, 10 and 50 nM, respectively, for 48 hours. Each treatment was set in duplicate. Cell cycle was detected and analyzed as described in the general protocol above.

RNase A = molecular target: T1, RNase A (Bos taurus, UniProt P61823); assay: saRNA stability analysis in the presence of RNase A (agarose gel); settings: incubation 0 to 96 hours
T1 sequence (P61823 27-150): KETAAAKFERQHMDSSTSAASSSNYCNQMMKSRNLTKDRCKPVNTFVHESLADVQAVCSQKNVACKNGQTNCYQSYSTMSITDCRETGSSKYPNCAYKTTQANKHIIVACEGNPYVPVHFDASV

[3] = test system: Rag1-40 target sequence in the 3′ UTR of firefly luciferase, COS-1 cells; assay: Analysis of off-target effects (pOff-Target dual luciferase reporter in COS-1 cells); settings: lysed 48 hours after transfection, luciferase activity

Substance: RAG1-40-53: saRNA duplex: sense mCmCAACfUCAfUfUCfUCCAAG*mU*mC (SEQ ID NO 24); antisense fUAfCfUfUGGAGAAfUGAGfUfUGG*fC*fA (SEQ ID NO 25) (sense CCAACUCAUUCUCCAAGUC; antisense UACUUGGAGAAUGAGUUGGCA; 2'-F, 2'-OMe, phosphorothioate modifications; modified_base (1)..(19) (1,2,18,19)=2′-O-methyl(2′-OMe); modified_base (6)..(12) (6,9,10,12)=2′-fluoro; modified_base (17)..(19) (17,18,19)=phosphorothioate (PS) backbone modification; modified_base (1)..(21) (1,3,4,5,12,16,17,20,21)=2′-fluoro; modified_base (20)..(21) (20,21)=phosphorothioate (PS) backbone modification)
- increase of expression level of p21 mRNA compared with the control group (p21 gene [1]; 1 day): 1.4 fold
- increase of expression level of p21 mRNA compared with the control group (p21 gene [1]; 2 days): 13.0 fold
- increase of expression level of p21 mRNA compared with the control group (p21 gene [1]; 3 days): 9.1 fold
- increase of expression level of p21 mRNA compared with the control group (p21 gene [1]; 4 days): 4.5 fold
- increase of expression level of p21 mRNA compared with the control group (p21 gene [1]; 7 days): 3.2 fold
- increase of expression level of p21 mRNA compared with the control group (p21 gene [1]; 9 days): 4.1 fold
- increase of expression level of p21 mRNA compared with the control group (p21 gene [2]; 1 day): 2.2 fold
- increase of expression level of p21 mRNA compared with the control group (p21 gene [2]; 2 days): 3.5 fold
- increase of expression level of p21 mRNA compared with the control group (p21 gene [2]; 3 days): 7.8 fold
- increase of expression level of p21 mRNA compared with the control group (p21 gene [2]; 4 days): 4.5 fold
- increase of expression level of p21 mRNA compared with the control group (p21 gene [2]; 7 days): 1.2 fold
- increase of expression level of p21 mRNA compared with the control group (p21 gene [2]; 9 days): 1.1 fold
- percentage of cells in DNA anaphase/mitosis (G2/M) (Ku-7-LG cells; 0.1 nM): 7%
- percentage of cells in DNA replication phase (S phase) (Ku-7-LG cells; 0.1 nM): 36%
- percentage of cells in prophase of DNA synthesis (G0/G1) (Ku-7-LG cells; 0.1 nM): 57%
- percentage of cells in DNA anaphase/mitosis (G2/M) (Ku-7-LG cells; 1 nM): 10%
- percentage of cells in DNA replication phase (S phase) (Ku-7-LG cells; 1 nM): 24%
- percentage of cells in prophase of DNA synthesis (G0/G1) (Ku-7-LG cells; 1 nM): 66%
- percentage of cells in DNA anaphase/mitosis (G2/M) (Ku-7-LG cells; 10 nM): 9%
- percentage of cells in DNA replication phase (S phase) (Ku-7-LG cells; 10 nM): 12%
- percentage of cells in prophase of DNA synthesis (G0/G1) (Ku-7-LG cells; 10 nM): 79%
- percentage of cells in DNA anaphase/mitosis (G2/M) (Ku-7-LG cells; 50 nM): 8%
- percentage of cells in DNA replication phase (S phase) (Ku-7-LG cells; 50 nM): 16%
- percentage of cells in prophase of DNA synthesis (G0/G1) (Ku-7-LG cells; 50 nM): 76%

Substance: Rag1-40-1: saRNA duplex: sense mCmCAACUCAUUCUCCAAGmUmC (SEQ ID NO 5); antisense fUAfCfUfUGGAGAAfUGAGfUfUGGfCA (SEQ ID NO 6) (sense CCAACUCAUUCUCCAAGUC; antisense UACUUGGAGAAUGAGUUGGCA; 2'-OMe and 2'-F modifications; modified_base (1)..(19) (1,2,18,19)=2′-O-methyl(2′-OMe); modified_base (1)..(20) (1,3,4,5,12,16,17,20)=2′-fluoro)
- degradation of duplex at 96 hours (RNase A): little or no signs of degradation
- off-target effect compared to unmodified Rag1-40, in words [3]: completely inhibited

Substance: Rag1-40-14: saRNA duplex: sense fCfCAACUCAUUCUCCAAGfUfC (SEQ ID NO 14); antisense fU*A*fCfUfUGGAGAAfUGAGfUfUGG*fC*A (SEQ ID NO 11) (sense CCAACUCAUUCUCCAAGUC; antisense UACUUGGAGAAUGAGUUGGCA; 2'-F modifications, phosphorothioates; modified_base (1)..(19) (1,2,18,19)=2′-fluoro; modified_base (1)..(21) (1,2,3,19,20,21)=phosphorothioate (PS) backbone modification; modified_base (1)..(20) (1,3,4,5,12,16,17,20)=2′-fluoro)
- degradation of duplex at 96 hours (RNase A): little or no signs of degradation
- off-target effect compared to unmodified Rag1-40, in words [3]: mitigated or similar off-target effects

Substance: Rag1-40-19: saRNA duplex: sense mCmCAACUCAUUCUCCAAG*U*C (SEQ ID NO 15); antisense fUmAfCfUfUmGmGmAmGmAmAfUmGmAmGfUfUmGmGfCmA (SEQ ID NO 8) (sense mCmCrArArCrUrCrArUrUrCrUrCrCrArArG*rU*rC)
- degradation of duplex at 96 hours (RNase A): little or no signs of degradation
- off-target effect compared to unmodified Rag1-40, in words [3]: mitigated or similar off-target effects
